Here are results for 2 compounds from article PMC5415086 (Nature, 2010).

The target of one data set is p300 (Homo sapiens, UniProt Q09472). Briefly: histone acetyltransferase. The data set is classed as biochemical.
Data set [1] has as its system bone marrow-derived macrophages (BMDMs). The experiment in a line: LPS-inducible gene expression in macrophages. The format is cell-based, C57BL/6 mice. To be noted: for number of LPS-inducible genes down-regulated: I-BET 1 μM, >2 fold.
The target in the next data set is CBP (Homo sapiens, UniProt Q92793). Briefly: histone acetyltransferase. The data set is classed as biochemical.
Data set [2] deals with bone marrow-derived macrophages (BMDMs). The experiment in a line: viability of BMDMs. The data set is classed as cell-based, C57BL/6 mice.
In data set [3] the test system is other bromodomain-containing proteins from each arm of the phylogeny tree. Briefly: interaction with other bromodomain-containing proteins. The data set is classed as binding. Conditions: selectivity.
Data set [4] relates to bone marrow-derived macrophages (BMDMs). Briefly: LPS-induced signalling. Conditions: I-BET treated cells. The data set is classed as cell-based, C57BL/6 mice.
A further data set addresses GCN5 (Homo sapiens, UniProt Q92830). The experiment in a line: histone acetyltransferase. The format is biochemical.
The test system of data set [5] is bone marrow-derived macrophages (BMDMs). The experiment in a line: gene transcription in BMDMs without LPS stimulation. The data set is classed as cell-based, C57BL/6 mice. To be noted: absence of LPS stimulation.
For a further data set, the target named is pCAF (Homo sapiens, UniProt Q92831). The experiment in a line: histone acetyltransferase. The format is biochemical.
Data set [6] has as its system panel of 38 unrelated proteins. The experiment in a line: activity towards a panel of unrelated proteins. Conditions: selectivity.
Data set [7] concerns il6 promoter in bone marrow-derived macrophages. The experiment in a line: ChIP of epigenetic marks at gene promoters in LPS-stimulated macrophages. The data set is classed as cell-based, C57BL/6 mice. To be noted: I-BET 5 μM.
In data set [8] the test system is bone marrow-derived macrophages (BMDMs). The format is cell-based, C57BL/6 mice. To be noted: BMDM treatment with the HDAC inhibitor.

pCAF, sequence (Q92831 whole entry, species assumed): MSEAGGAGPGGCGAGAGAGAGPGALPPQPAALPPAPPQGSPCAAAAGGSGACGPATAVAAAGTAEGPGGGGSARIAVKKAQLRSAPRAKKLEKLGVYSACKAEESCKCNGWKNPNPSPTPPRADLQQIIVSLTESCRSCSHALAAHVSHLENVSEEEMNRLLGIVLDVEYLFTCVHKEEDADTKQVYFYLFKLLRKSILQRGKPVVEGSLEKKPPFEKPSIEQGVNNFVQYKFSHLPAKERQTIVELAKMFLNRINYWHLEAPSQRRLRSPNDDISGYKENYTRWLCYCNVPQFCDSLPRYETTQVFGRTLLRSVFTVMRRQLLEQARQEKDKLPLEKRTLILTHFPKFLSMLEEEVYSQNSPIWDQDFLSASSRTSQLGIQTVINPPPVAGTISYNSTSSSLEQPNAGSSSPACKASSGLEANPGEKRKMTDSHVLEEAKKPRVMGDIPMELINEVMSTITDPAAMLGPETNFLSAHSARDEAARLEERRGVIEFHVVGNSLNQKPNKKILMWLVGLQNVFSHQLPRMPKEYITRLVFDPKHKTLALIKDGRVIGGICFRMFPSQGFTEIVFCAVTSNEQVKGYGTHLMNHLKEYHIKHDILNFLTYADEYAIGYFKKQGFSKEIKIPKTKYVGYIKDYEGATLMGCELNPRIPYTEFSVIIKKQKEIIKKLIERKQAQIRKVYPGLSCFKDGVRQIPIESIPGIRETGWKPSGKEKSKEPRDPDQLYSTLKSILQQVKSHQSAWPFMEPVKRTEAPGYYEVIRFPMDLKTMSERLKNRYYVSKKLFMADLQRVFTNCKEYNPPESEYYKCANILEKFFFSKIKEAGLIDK
GCN5, sequence (Q92830 whole entry, species assumed): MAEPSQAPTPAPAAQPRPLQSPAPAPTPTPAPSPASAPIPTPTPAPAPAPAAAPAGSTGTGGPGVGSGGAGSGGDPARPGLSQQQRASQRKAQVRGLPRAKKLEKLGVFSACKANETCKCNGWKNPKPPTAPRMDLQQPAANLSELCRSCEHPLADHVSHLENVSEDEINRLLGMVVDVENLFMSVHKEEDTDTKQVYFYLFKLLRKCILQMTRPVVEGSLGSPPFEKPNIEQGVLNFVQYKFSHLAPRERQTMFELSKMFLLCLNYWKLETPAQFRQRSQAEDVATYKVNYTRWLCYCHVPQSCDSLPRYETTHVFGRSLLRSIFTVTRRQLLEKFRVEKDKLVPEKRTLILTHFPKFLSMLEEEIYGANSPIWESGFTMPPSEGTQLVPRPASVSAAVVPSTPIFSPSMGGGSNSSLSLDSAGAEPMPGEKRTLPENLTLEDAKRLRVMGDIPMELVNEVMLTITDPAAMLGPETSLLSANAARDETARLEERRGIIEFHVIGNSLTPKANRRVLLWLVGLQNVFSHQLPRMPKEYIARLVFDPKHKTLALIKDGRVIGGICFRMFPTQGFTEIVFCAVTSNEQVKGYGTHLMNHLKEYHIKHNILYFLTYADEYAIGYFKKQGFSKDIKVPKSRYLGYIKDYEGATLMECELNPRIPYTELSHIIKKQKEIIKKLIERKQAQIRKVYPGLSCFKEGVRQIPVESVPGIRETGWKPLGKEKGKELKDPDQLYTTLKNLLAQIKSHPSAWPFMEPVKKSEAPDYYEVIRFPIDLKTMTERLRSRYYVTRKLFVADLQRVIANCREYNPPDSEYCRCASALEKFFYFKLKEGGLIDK
CBP, sequence (Q92793 whole entry): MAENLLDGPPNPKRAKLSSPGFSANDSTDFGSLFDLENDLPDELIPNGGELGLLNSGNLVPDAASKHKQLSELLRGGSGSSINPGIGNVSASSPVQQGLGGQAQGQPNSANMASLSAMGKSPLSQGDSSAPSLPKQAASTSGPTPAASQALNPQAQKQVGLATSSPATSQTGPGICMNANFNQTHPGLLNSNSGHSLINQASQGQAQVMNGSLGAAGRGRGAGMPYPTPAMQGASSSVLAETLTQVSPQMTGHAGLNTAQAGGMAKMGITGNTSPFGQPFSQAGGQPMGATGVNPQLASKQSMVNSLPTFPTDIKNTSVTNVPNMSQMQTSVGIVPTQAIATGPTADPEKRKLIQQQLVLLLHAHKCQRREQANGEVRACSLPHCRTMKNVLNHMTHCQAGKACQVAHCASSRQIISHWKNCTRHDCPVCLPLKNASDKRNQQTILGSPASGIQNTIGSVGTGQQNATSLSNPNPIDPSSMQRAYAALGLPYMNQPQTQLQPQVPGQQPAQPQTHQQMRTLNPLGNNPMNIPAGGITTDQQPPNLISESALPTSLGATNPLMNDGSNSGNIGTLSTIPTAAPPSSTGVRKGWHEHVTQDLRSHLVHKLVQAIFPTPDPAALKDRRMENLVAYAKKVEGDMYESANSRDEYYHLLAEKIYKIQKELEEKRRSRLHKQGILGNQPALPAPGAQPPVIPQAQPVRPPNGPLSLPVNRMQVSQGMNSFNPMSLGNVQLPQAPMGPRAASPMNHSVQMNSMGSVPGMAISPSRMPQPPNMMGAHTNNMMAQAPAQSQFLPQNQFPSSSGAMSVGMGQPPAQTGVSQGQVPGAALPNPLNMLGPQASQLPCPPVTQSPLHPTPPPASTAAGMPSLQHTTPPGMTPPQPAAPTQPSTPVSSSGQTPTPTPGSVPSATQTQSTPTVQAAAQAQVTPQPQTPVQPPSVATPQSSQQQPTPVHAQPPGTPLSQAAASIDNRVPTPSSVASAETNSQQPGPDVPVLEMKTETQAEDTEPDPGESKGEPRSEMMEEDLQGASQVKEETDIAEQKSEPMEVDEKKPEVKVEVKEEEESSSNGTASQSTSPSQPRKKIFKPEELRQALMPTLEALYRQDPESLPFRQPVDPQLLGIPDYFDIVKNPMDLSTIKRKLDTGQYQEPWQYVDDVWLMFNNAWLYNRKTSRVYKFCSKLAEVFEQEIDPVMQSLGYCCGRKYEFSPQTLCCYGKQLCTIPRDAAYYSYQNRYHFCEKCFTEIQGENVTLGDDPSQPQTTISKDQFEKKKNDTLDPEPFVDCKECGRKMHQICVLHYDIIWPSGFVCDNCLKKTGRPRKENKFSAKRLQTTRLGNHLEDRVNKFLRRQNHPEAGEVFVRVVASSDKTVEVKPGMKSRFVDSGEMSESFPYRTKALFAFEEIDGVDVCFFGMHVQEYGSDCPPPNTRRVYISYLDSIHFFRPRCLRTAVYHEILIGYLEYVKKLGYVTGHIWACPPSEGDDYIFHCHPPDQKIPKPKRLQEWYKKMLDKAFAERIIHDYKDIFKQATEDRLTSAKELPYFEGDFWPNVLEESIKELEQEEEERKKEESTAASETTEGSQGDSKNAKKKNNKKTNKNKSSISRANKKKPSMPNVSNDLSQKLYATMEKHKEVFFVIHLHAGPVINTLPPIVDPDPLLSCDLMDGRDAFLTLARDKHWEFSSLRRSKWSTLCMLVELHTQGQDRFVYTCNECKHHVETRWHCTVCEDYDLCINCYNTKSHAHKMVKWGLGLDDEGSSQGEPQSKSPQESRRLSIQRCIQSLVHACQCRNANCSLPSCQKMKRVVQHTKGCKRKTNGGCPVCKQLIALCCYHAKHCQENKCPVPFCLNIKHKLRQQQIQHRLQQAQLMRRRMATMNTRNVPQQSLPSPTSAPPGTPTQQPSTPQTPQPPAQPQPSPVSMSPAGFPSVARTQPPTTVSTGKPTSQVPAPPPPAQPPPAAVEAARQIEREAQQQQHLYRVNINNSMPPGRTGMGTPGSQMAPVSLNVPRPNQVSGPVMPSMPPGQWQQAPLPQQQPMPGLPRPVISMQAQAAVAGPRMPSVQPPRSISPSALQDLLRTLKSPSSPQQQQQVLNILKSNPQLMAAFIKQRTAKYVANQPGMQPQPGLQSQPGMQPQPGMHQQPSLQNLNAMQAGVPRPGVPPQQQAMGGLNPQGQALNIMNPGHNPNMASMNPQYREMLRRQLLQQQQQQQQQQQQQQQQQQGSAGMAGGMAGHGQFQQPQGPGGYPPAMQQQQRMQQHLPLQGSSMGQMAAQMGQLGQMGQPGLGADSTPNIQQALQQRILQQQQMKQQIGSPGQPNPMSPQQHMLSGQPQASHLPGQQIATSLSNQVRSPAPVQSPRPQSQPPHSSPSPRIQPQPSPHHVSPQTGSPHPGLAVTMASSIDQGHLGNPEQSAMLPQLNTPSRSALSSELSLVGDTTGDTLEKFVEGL

Regarding `CCNC(=O)C[C@@H]1N=C(c2ccc(Cl)cc2)c2cc(OC)ccc2-n2c(C)nnc21` [I-BET], the “suppression of HAT activity” value on p300, on CBP, at GCN5 and on pCAF was “inability of I-BET to suppress the activity” in each case. For the same compound, the “number of LPS-inducible genes down-regulated” value in data set [1] (1 hour after LPS) is reported as 38; in [1] (4 hours after LPS), 151. Further, the “expression of tnf, ccl2-5, cxcl1/2” value in data set [1] (LPS-stimulated BMDMs) is “not affected”. In data set [2], the “effect on viability of BMDMs” value is “no effect”. The “interaction with other bromodomain-containing proteins” value in data set [3] is reported as “did not interact”. In addition, in data set [4], the “LPS-induced ERK phosphorylation and IκBα degradation” value is given as “unaltered pattern”. In data set [5], the “effect on gene transcription” value is “marginal effect”. In [6], the “activity towards a panel of 38 unrelated proteins” value is “no activity”. Further, in [7], the “BET recruitment at il6 promoter” value is on record as “marked reduction”.
For the compound `CC(/C=C/C(=O)NO)=C\[C@@H](C)C(=O)c1ccc(N(C)C)cc1` [trichostatin A], the “conversion of sI-BET genes into naI-BET genes” value in [8] is “able to “convert” sI-BET into naI-BET genes”.
